{
  "source": "patent US6432883B1",
  "about": "“Methods of treating plants with glycolic acid” (Emerald BioAgriculture Corporation, priority 2000, dated 2002)",
  "key": {"[1]": {"system": "cabbage", "experiment": "Cabbage plant growth stimulation: fresh and dry weights", "format": "in vivo", "details": "5, 15 or 50 ppm spray, FIGS. 1 and 2", "procedure": "Market Prize, F1 cabbage seed, lot 88955, was purchased from Harris Seeds, Inc. (Rochester, N.Y.) and grown 2 plants per 4″×4″×4″ pot, 1 pot per experimental unit and 6 experimental units per each of 4 replications. The plants were spray-treated first at 2 true leaves and again 7 days later with 8 ml solution per pot.\nThe treatments included a non-treated control (NTC), 0.05% Breakthru® (a silicone-based surfactant obtained from Goldschmidt Chemical, Hopewell, Va.) control, and 5, 15 or 50 ppm of either Glypure® (F12; 99% high purity crystalline glycolic acid), or ammonia-neutralized Glypure® [F18; a 50% (w/v) solution made by neutralizing 70% high purity glycolic acid from DuPont with ammonium hydroxide to a pH of 4.4. Growth stimulation was assessed by measuring both the fresh and dry weights of the plants."}, "[2]": {"system": "cabbage", "experiment": "Cabbage drought stress: fresh and dry weights", "format": "in vivo", "procedure": "Market Prize, F1 cabbage seed, lot 88955, as described in example 7, was treated identically as in example 7, except that drought stress was imposed by withholding water 7 days following the second spray and continuing to withhold water for 13 sequential days thereafter. Drought tolerance was assessed by measuring both the fresh and dried weights of the plants."}, "[3]": {"system": "Sclerotinia minor", "experiment": "Colony radius of plant pathogen on amended potato dextrose agar", "format": "cell-based", "details": "in PDA, 4 days, about 23° C., FIG. 5", "excerpt": "Sclerotinia minor culture SaM-18 was received from Krishna Subbarro, Ph.D., Univ. Calif., Davis. Potato dextrose agar (PDA) powder was purchased from Baltimore Biological Laboratory, Inc. (BBL), ammonium glycolate and glycolic acid from DuPont Specialty Chemicals and BreakThru® surfactant from Goldschmidt Chemical Corp.\nPDA was made, poured into sterile disposable petri dishes (100×15 mm) and inoculated with S. minor sclerotia to start new cultures on day zero. These cultures had reached an appropriate stage of maturation for use for use in the test after two weeks of growth. Multiple 1 liter containers of PDA were made and autoclaved on day 14. These PDA containers remained in the circulating water bath at 46° C. until the solutions were ready for addition (about 2 hrs.). The glycolic acid-containing compositions were added to the 46° C. PDA through a syringe-tip 0.2 μm-pore sterile filtration disc in a positive laminar-flow sterile hood and thoroughly mixed before returning to the 46° C. water bath to await pouring. Stacks of 22 dishes were poured for each medium type and allowed to solidify and cool overnight.\nOn day 15, soft, white to gray, sclerotial clumps of hyphae were picked from the culture dishes with heat sterilized forceps and one clump was transferred to the center of each test medium dish. Twenty dishes of each inoculated medium were stacked and replaced into the plastic sleeves they were originally packaged in for incubation at room temperature (about 23° C.). After 4 days of growth, some of the cultures had just reached the edges of the medium. The radius of each colony was measure in mm.\nTreatments were water controls, 0.05% surfactant controls, 5, 15, 50, 75 and 100 ppm of glycolic acid (F12) and 5, 15, 50, 100 and 750 ppm of ammonia-neutralized glycolic acid (F18; i.e., ammonium glycolate)."}},
  "data": [
    {"smiles": "N.O=C(O)CO", "note": "[F18, ammonium glycolate]", "values": [
      {"measurement": "plant growth (fresh and dry weights) compared to the controls", "setting": "[1]", "value": "statistically significantly stimulated plant growth"},
      {"measurement": "plant growth compared to equivalent amounts of F12", "setting": "[1]", "value": "stimulated plant growth to a greater extent"},
      {"measurement": "resistance to the effects of drought stress compared to equivalent amounts of F12", "setting": "[2]; 5, 15 and 50 ppm, plant weight", "value": "statistically significantly greater effect"},
      {"measurement": "fresh weight of the cabbage compared to controls", "setting": "[2]; drought, water withheld 13 days, 5, 15, 50 ppm, FIG. 3", "value": "statistically significantly increased"},
      {"measurement": "dry weight of the cabbage compared to controls", "setting": "[2]; drought, water withheld 13 days, 5, 15, 50 ppm, FIG. 4", "value": "statistically significantly increased"},
      {"measurement": "Sclerotinia growth compared to equivalent amounts of glycolic acid", "setting": "[3]", "value": "significantly more"},
      {"measurement": "growth of Sclerotinia minor (colony radius) compared to controls", "setting": "[3]", "value": "statistically significantly increased the growth"}
    ]}
  ]
}
